Results reported in ChEMBL document CHEMBL3045891, “Effects of three neem-based insecticides on diamondback moth (lepidoptera: plutellidae)” (2003).
Activity calls are given as the source filed them. No cut-off for these calls is given here.

Key:
Plutella xylostella [1] = assay: Insecticidal activity against third-instar of Plutella xylostella (diamondback moth) on cabbage leaves assessed as mortality after 5 days; format: functional, organism-based
Plutella xylostella [2] = assay: Insecticidal activity against larvae of Plutella xylostella (diamondback moth) on cabbage leaves after 5 days; format: functional, organism-based
Plutella xylostella [3] = assay: Reduction of oviposition in adult Plutella xylostella (diamondback moth) in aluminium foil assessed as number of egg oviposited after 24 hr by two choice test; format: functional, organism-based
Plutella xylostella [4] = assay: Reduction of oviposition in adult Plutella xylostella (diamondback moth) in cabbage leaves assessed as number of egg oviposited after 24 hr by no choice test; format: functional, organism-based
Plutella xylostella [5] = assay: Reduction of oviposition in adult Plutella xylostella (diamondback moth) in aluminium foil assessed as number of egg oviposited after 24 hr by no choice test; format: functional, organism-based
Plutella xylostella [6] = assay: Reduction of oviposition in adult Plutella xylostella (diamondback moth) in cabbage leaves assessed as number of egg oviposited after 24 hr by two choice test; format: functional, organism-based
Plutella xylostella [7] = assay: Antifeedant activity against neonates of Plutella xylostella (diamondback moth) on cabbage leaves assessed as leaf disks damage; format: functional
Plutella xylostella [8] = assay: Antifeedant activity against larvae of Plutella xylostella (diamondback moth) on cabbage leaves assessed as length of larvae after 5 days; format: functional
Plutella xylostella [9] = assay: Antifeedant activity against larvae of Plutella xylostella (diamondback moth) on cabbage leaves assessed as diameter of larvae after 5 days; format: functional
Plutella xylostella [10] = assay: Antifeedant activity against second-instar of Plutella xylostella (diamondback moth) on cabbage leaves assessed as leaf disks damage; format: functional
Plutella xylostella [11] = assay: Antifeedant activity against third-instar of Plutella xylostella (diamondback moth) on cabbage leaves assessed as leaf disks damage; format: functional
Plutella xylostella [12] = assay: Insecticidal activity against Plutella xylostella (diamondback moth) eggs on cabbage leaves assessed as eggs developed to neonates after 5 days relative to control; format: functional
Plutella xylostella [13] = assay: Antifeedant activity against fourth-instar of Plutella xylostella (diamondback moth) on cabbage leaves assessed as leaf disks damage; format: functional
Plutella xylostella [14] = assay: Antifeedant activity against larvae of Plutella xylostella (diamondback moth) on cabbage leaves assessed as weight of larvae after 5 days; format: functional
Plutella xylostella [15] = assay: Insecticidal activity against third-instar of Plutella xylostella (diamondback moth) on cabbage leaves assessed as survival after 3 days; format: functional
Plutella xylostella [16] = assay: Insecticidal activity against neonates of Plutella xylostella (diamondback moth) on cabbage leaves assessed as survival after 5 days; format: functional

| Compound | Activity (Plutella xylostella [1]) | Activity (Plutella xylostella [2]) | Activity (Plutella xylostella [3]) | Activity (Plutella xylostella [4]) | Activity (Plutella xylostella [5]) | Activity (Plutella xylostella [6]) | Activity (Plutella xylostella [7]) | Activity (Plutella xylostella [8]) [mm] | Activity (Plutella xylostella [9]) [mm] | Activity (Plutella xylostella [10]) [%] | Activity (Plutella xylostella [11]) [%] | Activity (Plutella xylostella [12]) [%] | Activity (Plutella xylostella [13]) [%] | Activity (Plutella xylostella [14]) [mg] | Survival (Plutella xylostella [15]) [%] | Survival (Plutella xylostella [16]) [%] |
| --- | --- | --- | --- | --- | --- | --- | --- | --- | --- | --- | --- | --- | --- | --- | --- | --- |
| C/C=C(\C)C(=O)O[C@H]1C[C@@H](OC(C)=O)[C@@]2(C(=O)OC)CO[C@H]3[C@@H](O)[C@@](C)([C@]45O[C@@]4(C)[C@@H]4C[C@H]5O[C@@H]5OC=C[C@@]54O)[C@H]4[C@]1(CO[C@]4(O)C(=O)OC)[C@@H]32 (stereo in doubt; form 1) | Active | Active | Active | inactive | inactive | inactive |  |  |  |  |  |  |  |  |  |  |
| C/C=C(\C)C(=O)O[C@H]1C[C@@H](OC(C)=O)[C@@]2(C(=O)OC)CO[C@H]3[C@@H](O)[C@@](C)([C@]45O[C@@]4(C)[C@@H]4C[C@H]5O[C@@H]5OC=C[C@@]54O)[C@H]4[C@]1(CO[C@]4(O)C(=O)OC)[C@@H]32 (stereo in doubt; form 1) [AZADIRACHTIN A] |  |  |  |  |  |  | <=2% | 13.5 | 2 | 2.1 | 5.1 | 75.2 | 10.1 | 0.013 |  |  |
| C/C=C(\C)C(=O)O[C@H]1C[C@@H](OC(C)=O)[C@@]2(C(=O)OC)CO[C@H]3[C@@H](O)[C@@](C)([C@]45O[C@@]4(C)[C@@H]4C[C@H]5O[C@@H]5OC=C[C@@]54O)[C@H]4[C@]1(CO[C@]4(O)C(=O)OC)[C@@H]32 (stereo in doubt; form 2) | Active | Active | Active | inactive | inactive | inactive |  |  |  |  |  |  |  |  |  |  |
| C/C=C(\C)C(=O)O[C@H]1C[C@@H](OC(C)=O)[C@@]2(C(=O)OC)CO[C@H]3[C@@H](O)[C@@](C)([C@]45O[C@@]4(C)[C@@H]4C[C@H]5O[C@@H]5OC=C[C@@]54O)[C@H]4[C@]1(CO[C@]4(O)C(=O)OC)[C@@H]32 (stereo in doubt; form 2) [AZADIRACHTIN A] |  |  |  |  |  |  |  | 14.7 | 2.5 |  |  | 66.2 |  | 0.012 |  |  |
| C/C=C(\C)C(=O)O[C@H]1C[C@@H](OC(C)=O)[C@@]2(C(=O)OC)CO[C@H]3[C@@H](O)[C@@](C)([C@]45O[C@@]4(C)[C@@H]4C[C@H]5O[C@@H]5OC=C[C@@]54O)[C@H]4[C@]1(CO[C@]4(O)C(=O)OC)[C@@H]32 (stereo in doubt; form 3) | Active | Active | Active | inactive | inactive | inactive |  |  |  |  |  |  |  |  |  |  |
| C/C=C(\C)C(=O)O[C@H]1C[C@@H](OC(C)=O)[C@@]2(C(=O)OC)CO[C@H]3[C@@H](O)[C@@](C)([C@]45O[C@@]4(C)[C@@H]4C[C@H]5O[C@@H]5OC=C[C@@]54O)[C@H]4[C@]1(CO[C@]4(O)C(=O)OC)[C@@H]32 (stereo in doubt; form 3) [AZADIRACHTIN A] |  |  |  |  |  |  |  | 14.8 | 2.2 |  |  | 61.6 |  | 0.016 | <60 | 50 |
